From ChEMBL document CHEMBL4616707, “Rationally Designed Covalent BCL6 Inhibitor That Targets a Tyrosine Residue in the Homodimer Interface” (ACS Med Chem Lett, 2020)
The source made the active and inactive calls. The calls are words filed in the database; no cut-off is given here.

Columns and labels:
[1] = test system: SUD4; test: Antiproliferative activity against human SU-DHL4 cells assessed as growth inhibition at 6.2 uM after 5 days by Celltiter-Glo assay; assay type: functional, cell-based
[2] = molecular target: B-cell lymphoma 6 protein (Homo sapiens) (UniProt P41182); test: Covalent inhibition of human wild type BCL6 expressed in HEK293T cells transfected with eGFP assessed as rescue of BI-3802-induced BCL6 degradation at 5 uM incubated for 30 hrs followed by […] addition and measured after 5 hrs by flow cytometry based mCherry reporter gene analysis; assay type: cell-based; details: HEK-293T
[3] = molecular target: B-cell lymphoma 6 protein (Homo sapiens) (UniProt P41182); test: Binding affinity to recombinant human BCL6 (48 to 66 residues) assessed as protein compound adduct formation via Tyr58 residue after 2 hrs by LC-MS/MS analysis

Row | SMILES | Activity [1] | Activity [2] | Activity [3]
1 | CNC(=O)COc1cc2cc(Nc3nc(NCc4cccc(S(=O)(=O)F)c4)ncc3Cl)cc(OC)c2n(C)c1=O | Active | Active | Active
2 | O=C1Cc2cc(Nc3nc(NCc4cccc(S(=O)(=O)F)c4)ncc3Cl)ccc2N1 | – | Active | Active
3 | CNC(=O)COc1cc2cc(Nc3nc(NCc4cccc(S(C)(=O)=O)c4)ncc3Cl)cc(OC)c2n(C)c1=O | inactive | – | –
